This is an account of results in US20170253607A1, “LONG-ACTING HIV PROTEASE INHIBITOR” (Shionogi & Co., Ltd., priority 2014, published 2017).

Structures are written as SMILES. A value given as a limit tells only on which side of the number the result lay.

The target of one data set is HIV-1 PR (Human immunodeficiency virus type 1 group M subtype B, UniProt P04585). Put plainly: HIV-protease inhibitory activity assay (FRET peptide substrate). The data set is classed as biochemical. The settings on record: Test Example 1. In short, it runs like this: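 Fluorescence recovery at ex 485/em 535 nm reports cleavage of a quenched FRET peptide (2 μmol/L final) by 0.83 ng enzyme over 60 minutes at room temperature. Buffer was NaAc pH 4.8 with NaCl, EDTA, DTT and Tween 20. IC50 values came from four-parameter logistic regression of % inhibition.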

Data set [1] is described as follows: Protein binding test (equilibrium dialysis, unbound ratio fu in serum). Format: in vitro ADME. The settings on record: 37° C.; for rat_fu: rat serum, equilibrium dialysis 24 hours, 2 μg/mL. On the procedure:
Assay condition: Evaluation method; Equilibrium dialysis method, Reaction time; 24 hours, Reaction temperature; 37° C., Assay concentration; 2 μg/mL A solution of the compound was added to each serum and mixed to prepare the serum samples with above concentration. The serum sample was put into one side of an equilibrium dialysis apparatus with dialysis membrane and phosphate buffered saline (PBS) was also put to another side of the apparatus. The apparatus was incubated at 37° C. for 24 hours. After incubation, the serum and PBS samples were collected and the compound concentrations in both samples were measured by LC/MS/MS. Fu was calculated by dividing the concentration in PBS by the concentration in the serum.

Data set [2] is described as follows: Evaluation of total body clearance (CLtot), intravenous administration. Format: in vivo, Sprague-Dawley (SD). The settings on record: rat (SD), intravenous administration 0.5-10 mg/kg; CLtot = dose/AUC. In short, it runs like this: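 Compounds given as a single tail-vein injection at 0.5-10 mg/kg (n=2-3), dose varying by compound. Plasma sampled at scheduled times and measured by LC/MS/MS; CLtot derived as dose divided by AUC from pharmacokinetic analysis.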

With `CC(C)CN(CC(O)C(Cc1ccc(OCc2ccccc2-c2sc3c(c2C(=O)O)CC(C)(C)CC3)cc1)NC(=O)OC1COC2(C)OCCC12)S(=O)(=O)c1ccc2nc(N)sc2c1` (centres unmarked) [Compound I-51], the IC50 against HIV-1 PR worked out at 2.65 nM. Also, the rat_fu in data set [1] is below 0.1%. In addition, in data set [2], the rat_CLt came out at 1.47 mL/min/kg.
For `COc1ccc(S(=O)(=O)N(CC(C)C)CC(O)C(Cc2ccc(NC3Cc4cccc(-c5sc6c(c5C(=O)O)CC(C)(C)CC6)c4C3)cc2)NC(=O)OC2COC3(C)OCCC23)cc1` (centres unmarked) [Compound I-241], in that order: 2.95 nM, below 0.1% and 0.404 mL/min/kg.
The corresponding values for `COc1ccc(S(=O)(=O)N(CC2CCCC2)CC(O)C(Cc2ccc(OCc3ccccc3-n3nc4c(c3C(=O)O)CC(C)(C)CC4)cc2)NC(=O)OC2COC3(C)OCCC23)cc1` (centres unmarked) [Compound I-139] are 0.78 nM, below 0.1% and 0.286 mL/min/kg.
For `COc1ccc(S(=O)(=O)N(CC(C)C)CC(O)C(Cc2ccc(N3CC(Oc4ccccc4-c4sc5c(c4C(=O)O)CC(C)(C)CC5)C3)cc2)NC(=O)OC2COC3(C)OCCC23)cc1` (centres unmarked) [Compound I-357], in that order: 4.41 nM, below 0.1% and 1.55 mL/min/kg.
Turning to `COc1ccc(S(=O)(=O)N(CC(C)C)CC(O)C(Cc2ccc(OCc3ncc(F)cc3-c3sc4c(c3C(=O)O)CC(C)(C)CC4)cc2)NC(=O)OC2COC3(C)OCCC23)cc1` (centres unmarked) [Compound I-182], the IC50 against HIV-1 PR is 1.44 nM. In data set [1], the rat_fu is listed as below 0.1%. In data set [2], this compound yielded a rat_CLt of 3.84 mL/min/kg.
The compound `COc1ccc(S(=O)(=O)N(CC(C)C)CC(O)C(Cc2ccc(NCc3cc(C(F)(F)F)ccc3-n3nc4c(c3C(=O)O)CC(C)(C)CC4)cc2)NC(=O)OC2COC3(C)OCCC23)cc1` (centres unmarked) [Compound I-378] showed an IC50 at HIV-1 PR of 4.1 nM. In data set [1], the rat_fu was below 0.1%. This compound returned a rat_CLt in data set [2] of 0.173 mL/min/kg.
For `COc1ccc(S(=O)(=O)N(CC(C)C)CC(O)C(Cc2ccc(NC3Cc4cccc(-c5sc6c(c5C(=O)O)CC(C)(C)CC6)c4C3)cc2)NC(=O)OC2COC3(C)OCCC23)cc1` (centres unmarked) [Compound I-242], in that order: 3.11 nM, below 0.1% and 0.408 mL/min/kg.
The compound `COc1ccc(S(=O)(=O)N(CC(C)C)C[C@@H](O)[C@H](Cc2ccc(OCc3ccccc3-c3sc4c(c3C(=O)O)CC(C)(C)CC4)cc2)NC(=O)[C@H](CC(N)=O)NC(=O)c2ccc3ccccc3n2)cc1` [Compound I-30] displayed an IC50 at HIV-1 PR of 3.67 nM. Moreover, the rat_fu in data set [1] is on record as below 0.1%. This compound also registered a rat_CLt in data set [2] of 1.52 mL/min/kg.
In the case of `COc1ccc(S(=O)(=O)N(CC(C)C)C[C@@H](O)[C@H](Cc2ccc(OCc3ccccc3-c3sc4c(c3C(=O)O)CCCC4=O)cc2)NC(=O)O[C@H]2CO[C@@]3(C)OCC[C@@H]23)cc1` [Compound I-2], it took 1.05 nM to reach half-maximal inhibition against HIV-1 PR (IC50). The rat_fu in data set [1] is on record as below 0.1%. The same compound displayed a rat_CLt in data set [2] of 5.11 mL/min/kg.
The corresponding values for `COc1ccc(S(=O)(=O)N(CC(C)C)C[C@@H](O)[C@H](Cc2ccc(NC[C@H]3CCCC[C@H]3c3sc4c(c3C(=O)O)CC(C)(C)CC4)cc2)NC(=O)O[C@H]2CO[C@@]3(C)OCC[C@@H]23)cc1` [Compound I-247] are 2.25 nM, below 0.1% and 0.148 mL/min/kg.
On to `Cc1cc(Oc2ccc(CC(NC(=O)OC3COC4OCCC34)C(O)CN(CC(C)C)S(=O)(=O)c3ccc4c(c3)OCO4)cc2)ccc1-c1sc2c(c1C(=O)O)CC(C)(C)CC2` (centres unmarked) [Compound I-835], for which the IC50 at HIV-1 PR was 2.81 nM. In data set [1], the rat_fu is below 0.1%. Further, the rat_CLt in data set [2] is reported as 1.63 mL/min/kg.
With `COc1ccc(S(=O)(=O)N(CC(C)C)CC(O)C(Cc2ccc(OCc3cc(C#N)ccc3-c3sc4c(c3C(=O)O)CC(C)(C)CC4)cc2)NC(=O)OC2COC3(C)OCCC23)cc1` (centres unmarked) [Compound I-79], at HIV-1 PR, half-maximal inhibition (IC50) required 1.74 nM. Moreover, the rat_fu in data set [1] is on record as below 0.1%. In addition, the rat_CLt in data set [2] was 3.15 mL/min/kg.
At HIV-1 PR, `COc1ccc(S(=O)(=O)N(CC(C)C)CC(O)C(Cc2ccc(NCc3cnc4ccccc4c3-c3sc4c(c3C(=O)O)CC(C)(C)CC4)cc2)NC(=O)OC2COC3(C)OCCC23)cc1` (centres unmarked) [Compound I-384] registered a half-inhibitory concentration (IC50) of 6.62 nM. Besides, the rat_fu in data set [1] is below 0.1%. The rat_CLt in data set [2] worked out at 0.253 mL/min/kg.
The corresponding values for `COc1ccc(S(=O)(=O)N(CC(C)C)CC(O)C(Cc2ccc(NCC3=C(c4sc5c(c4C(=O)O)CC(C)(C)CC5)CCCC3)cc2)NC(=O)OC2COC3(C)OCCC23)cc1` (centres unmarked) [Compound I-231] are 3.91 nM, below 0.1% and 1.02 mL/min/kg.
In turn, `COc1ccc(S(=O)(=O)N(CC(C)C)CC(O)C(Cc2ccc(OCc3ccccc3-n3nc4c(c3C(=O)O)CC(C)(C)CC4)cc2)NC(=O)OC2COC3OCCC23)cc1` (centres unmarked) [Compound I-807] gave an IC50 against HIV-1 PR of 0.86 nM. In data set [1], the rat_fu is below 0.1%. This compound yielded a rat_CLt in data set [2] of 0.61 mL/min/kg.
The corresponding values for `COc1ccc(S(=O)(=O)N(CC(C)C)CC(O)C(Cc2ccc(OCc3ccccc3-c3sc4c(c3C(=O)O)CC(C)(C)CC4)cc2)NC(=O)OC2CC3OCC(O)C3C2)cc1` (centres unmarked) [Compound I-29] are 1.41 nM, below 0.1% and 1.54 mL/min/kg.
As for `COc1ccc(S(=O)(=O)N(CC(C)C)CC(O)C(Cc2ccc(N3CC(C)C(Oc4ccccc4-c4sc5c(c4C(=O)O)CC(C)(C)CC5)C3)cc2)NC(=O)OC2COC3(C)OCCC23)cc1` (centres unmarked) [Compound I-406], the IC50 against HIV-1 PR was determined as 1.89 nM. The rat_fu in data set [1] was below 0.1%. The rat_CLt in data set [2] was found to be 4.61 mL/min/kg.
The compound `COc1ccc(S(=O)(=O)N(CC(C)C)CC(O)C(Cc2ccc(N(C)Cc3cc(C(F)(F)F)ccc3-n3nc4c(c3C(=O)O)CC(C)(C)CC4)cc2)NC(=O)OC2COC3(C)OCCC23)cc1` (centres unmarked) [Compound I-379] came in with an IC50 at HIV-1 PR of 4.42 nM. The rat_fu in data set [1] is given as below 0.1%. For the same compound, the rat_CLt in data set [2] was 0.173 mL/min/kg.
The corresponding values for `COc1ccc(S(=O)(=O)N(CC(C)C)CC(O)C(Cc2ccc(N(C)CC3=C(c4sc5c(c4C(=O)O)CC(C)(C)CC5)CCCC3)cc2)NC(=O)OC2COC3(C)OCCC23)cc1` (centres unmarked) [Compound I-236] are 2.9 nM, below 0.1% and 0.763 mL/min/kg.
`COc1ccc(S(=O)(=O)N(CC(C)C)CC(O)C(Cc2ccc(N(C)CCCc3ccccc3-c3sc4c(c3C(=O)O)CC(C)(C)CC4)cc2)NC(=O)OC2COC3(C)OCCC23)cc1` (centres unmarked) [Compound I-240] had an IC50 against HIV-1 PR of 2.02 nM. For the same compound, the rat_fu in data set [1] is given as below 0.1%. In data set [2], the rat_CLt is reported as 4.5 mL/min/kg.
On HIV-1 PR, `COc1ccc(S(=O)(=O)N(CC(C)C)C[C@@H](O)[C@H](Cc2ccc(OCc3ccccc3-c3sc4c(c3C(=O)O)CC(C)(C)CC4)cc2)NC(=O)OC2CO[C@H]3OC[C@H](OC)[C@@H]23)cc1` (some centres unmarked) [Compound I-907] gave a half-maximal inhibitory concentration (IC50) of 1.27 nM. For the same compound, the rat_fu in data set [1] is recorded as below 0.1%. This compound yielded a rat_CLt in data set [2] of 0.73 mL/min/kg.
With `COc1ccc(S(=O)(=O)N(CC(C)C)CC(O)C(Cc2ccc(OCc3ncccc3-c3sc4c(c3C(=O)O)CC(C)(C)CC4)cc2)NC(=O)OC2COC3OCCC23)cc1` (centres unmarked) [Compound I-827], at HIV-1 PR, the IC50 was found to be 0.81 nM. Further, the rat_fu in data set [1] is on record as below 0.1%. For the same compound, in data set [2], the rat_CLt is recorded as 4.21 mL/min/kg.
As for `COc1ccc(S(=O)(=O)N(CC(C)C)CC(O)C(Cc2ccc(NCc3ccc(OC)cc3-c3sc4c(c3C(=O)O)CC(C)(C)CC4)cc2)NC(=O)OC2COC3(C)OCCC23)cc1` (centres unmarked) [Compound I-274], the IC50 on HIV-1 PR is 2.11 nM. The rat_fu in data set [1] is listed as below 0.1%. In addition, the rat_CLt in data set [2] was 0.659 mL/min/kg.
Regarding `COc1ccc(S(=O)(=O)N(CC(C)C)CC(O)C(Cc2ccc(OC3CN(c4cc(C(F)(F)F)ccc4-c4sc5c(c4C(=O)O)CC(C)(C)CC5)C3)cc2)NC(=O)OC2COC3(C)OCCC23)cc1` (centres unmarked) [Compound I-354], the IC50 against HIV-1 PR came out at 44.2 nM. The rat_fu in data set [1] is below 0.1%. Besides, the rat_CLt in data set [2] is reported as 0.0682 mL/min/kg.
Consider `CC(C)CN(C[C@@H](O)[C@H](Cc1ccccc1)NC(=O)O[C@H]1CO[C@H]2OCC[C@H]21)S(=O)(=O)c1ccc(N)cc1` [Darunavir, (3R,3aS,6aR)-hexahydrofuro[2,3-b]furan-3-yl[(1S,2R)-3-{[(4-aminophenyl)sulfonyl] (2-methylpropyl)amino}-1-benzyl-2-hydroxypropyl]carbamate, reference compound], for which the fraction unbound at 24 h, 2 μg/mL in data set [1] (serum, equilibrium dialysis, 24 hours, read-out: Serum protein binding rate (converted)) is 0.903.
At HIV-1 PR, `COc1ccc(S(=O)(=O)N(CC(C)C)CC(O)C(Cc2ccc(N(C)Cc3ccccc3-c3sc(N(C4CCCCC4)C4CCCCC4)nc3C(=O)O)cc2)NC(=O)OC2COC3(C)OCCC23)cc1` (centres unmarked) [Compound I-471] returned an IC50 of 4.69 nM. In addition, the rat_CLt in data set [2] is listed as 2.17 mL/min/kg.
For `COc1ccc(S(=O)(=O)N(CC(C)C)CC(O)C(Cc2ccc(NCC3CCCC3c3sc4c(c3C(=O)O)CC(C)(C)CC4)cc2)NC(=O)OC2COC3(C)OCCC23)cc1` (centres unmarked) [Compound I-409], in that order: 2.45 nM and 0.873 mL/min/kg.
